Earlier results on three substances are cited in publication PMC11477167, “Structure–Function Relationship of a Novel MTX-like Peptide (MTX1) Isolated and Characterized from the Venom of the Scorpion Maurus palmatus” (International Journal of Molecular Sciences, 2024).

In one data set the test system is glioblastoma. The following applies: subject of clinical trials; ref [9],[12],[13]; cited from earlier work. The source says: (§1) For instance, several research projects have focused on the use of scorpion neurotoxins as potential new treatments against cancers.
Data set [1] concerns glioma and melanoma cells. Particulars: glioma (charybdotoxin) and melanoma (iberiotoxin); ref [12],[14]; cited from earlier work.
Source text: as §1

The subject of data set [2] is human lung adenocarcinoma cells. Particulars: by blocking Kv1.2 and Kv1.3; ref [15],[16]; cited from earlier work.
Source text: as §1

On to chlorotoxin, for which the “Effect on glioblastoma cells” value in the data set with glioblastoma is “specifically targets the invasion and migration of glioblastoma cells”.

On to “iberiotoxin (QFTDVDCSVSKECWSVCKDLFGVDRGKCMGKKCRCYQ; UniProt P24663 1-37, looked up)”, for which, in data set [1], the “Inhibition of tumor cell proliferation and migration” value is “able to inhibit glioma and melanoma cell proliferation and migration”.

For “margatoxin (TIINVKCTSPKQCLPPCKAQFGQSAGAKCMNGKCKCYPH; UniProt P40755 1-39, looked up)”, the Inhibition of proliferation result in data set [2] is “inhibited the proliferation of human lung adenocarcinoma cells”.
